Assay results published in patent publication US11135320B2, “Radioligands for pretargeted pet imaging and methods of their therapeutic use” (priority 2015, dated 2021).

Assay: Blood residence time of ^64Cu-Tz-SarAr in healthy mice
Type: in vivo, athymic nude mice
Details: for Activity in Blood: healthy mice
Protocol: The radioligand was excreted rapidly via the bladder and kidneys, and the activity concentrations in the large intestine—a critical source of background noise in clinical colorectal cancer imaging—remained remarkably low (e.g., 0.07±0.01% ID/g at 1 h post-injection). Additional experiments were conducted to further interrogate the in vivo performance of ^64Cu-Tz-SarAr.

NC12CNCCNCC(NCc3ccc(CNC(=O)CCCC(=O)NCc4ccc(-c5nncnn5)cc4)cc3)(CNCCNC1)CNCCNC2.[64Cu+2] [^64Cu-Tz-SarAr]
half-life of clearance from the blood (biexponential fit, greater than 99% of the radioligand): ~16 min | Activity in Blood (15 min): 3.02 ± 1.10 % ID/g | Activity in Blood (30 min): 1.55 ± 0.21 % ID/g | Activity in Blood (1 h): 0.42 ± 0.11 % ID/g | Activity in Blood (4 h): 0.15 ± 0.01 % ID/g | Activity in Blood (12 h): 0.12 ± 0.03 % ID/g | Activity in Blood (24 h): 0.06 ± 0.01 % ID/g | blood residence time (vast majority of the radioligand): ~16 min
